From ChEMBL document CHEMBL1641372 (Bioorg Med Chem Lett, 2011) come the findings set out here.

Molecules are shown by their SMILES.

The target in data set [1] is T1, 5-hydroxytryptamine receptor 3A (Homo sapiens, UniProt P46098).
T1 sequence (P46098 whole entry): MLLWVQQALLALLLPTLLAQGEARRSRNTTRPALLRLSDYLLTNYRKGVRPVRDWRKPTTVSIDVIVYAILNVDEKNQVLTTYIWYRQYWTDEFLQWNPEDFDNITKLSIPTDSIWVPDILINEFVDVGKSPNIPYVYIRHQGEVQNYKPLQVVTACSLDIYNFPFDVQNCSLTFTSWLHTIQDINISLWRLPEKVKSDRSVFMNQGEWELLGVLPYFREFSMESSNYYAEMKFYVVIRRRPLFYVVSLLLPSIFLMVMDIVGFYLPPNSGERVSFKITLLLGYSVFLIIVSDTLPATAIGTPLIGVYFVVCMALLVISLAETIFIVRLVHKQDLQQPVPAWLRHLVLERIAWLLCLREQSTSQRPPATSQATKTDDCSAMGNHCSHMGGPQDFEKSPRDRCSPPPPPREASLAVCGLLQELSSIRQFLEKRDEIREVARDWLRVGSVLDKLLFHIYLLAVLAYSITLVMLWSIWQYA
The experiment in a line: Binding affinity to human 5HT3A receptor. It counts as single protein.

The subject of data set [2] is Mus musculus. The experiment in a line: Partial agonist activity at 5HT3 receptor in po dosed mouse assessed inhibition of serotonin-induced bradycardia administered 1 hr before serotonin challenge by von Bezold-Jarisch reflex test. The data set is classed as functional.
Data set [3] addresses Cytochrome P450 3A4 (Homo sapiens, UniProt P08684). The experiment in a line: Inhibition of human CYP3A4. It counts as ADME.
Data set [4] in a line: Intrinsic clearance in human liver microsomes assessed per mg of protein. It counts as ADME, Microsome.
Data set [5] addresses T1, 5-hydroxytryptamine receptor 3A. Kind of data set: Partial agonist activity at human 5HT3A receptor expressed in HEK293 cells assessed as effect on serotonin-induced response. It counts as functional, cell-based.
For data set [6] the target is unchanged. The experiment in a line: Partial agonist activity at human 5HT3A receptor expressed in HEK293 cells assessed as decrease in 10 uM 5-chloroindole-induced increase in intracellular calcium release. The data set is classed as functional, cell-based.
Data set [7] can be described thus: Inhibition of human CYP450. The data set is classed as ADME.
A short description of data set [8]: Solubility of the compound at pH 7.4 phosphate buffered saline. The data set is classed as physicochemical.
Data set [9] deals with T2, 5-hydroxytryptamine receptor 1A (Homo sapiens) (UniProt P08908).
T2 sequence (whole entry): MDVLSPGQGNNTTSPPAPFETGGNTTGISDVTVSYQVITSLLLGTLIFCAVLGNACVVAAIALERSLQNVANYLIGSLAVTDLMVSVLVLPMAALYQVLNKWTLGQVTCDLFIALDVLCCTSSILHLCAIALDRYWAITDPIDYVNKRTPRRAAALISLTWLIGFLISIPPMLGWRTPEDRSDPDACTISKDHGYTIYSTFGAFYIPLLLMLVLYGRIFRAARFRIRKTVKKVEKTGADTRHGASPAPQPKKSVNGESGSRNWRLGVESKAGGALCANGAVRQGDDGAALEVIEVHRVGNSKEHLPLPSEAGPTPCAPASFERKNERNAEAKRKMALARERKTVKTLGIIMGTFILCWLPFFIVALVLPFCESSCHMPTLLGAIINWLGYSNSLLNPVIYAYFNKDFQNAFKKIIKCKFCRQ
The experiment in a line: Inhibition of 5HT1A receptor at 1 uM.

Data set [10] addresses 5-hydroxytryptamine receptor 4 (Homo sapiens) (UniProt Q13639). The experiment in a line: Inhibition of 5HT4 receptor at 1 uM.

Cytochrome P450 3A4, sequence (P08684 whole entry): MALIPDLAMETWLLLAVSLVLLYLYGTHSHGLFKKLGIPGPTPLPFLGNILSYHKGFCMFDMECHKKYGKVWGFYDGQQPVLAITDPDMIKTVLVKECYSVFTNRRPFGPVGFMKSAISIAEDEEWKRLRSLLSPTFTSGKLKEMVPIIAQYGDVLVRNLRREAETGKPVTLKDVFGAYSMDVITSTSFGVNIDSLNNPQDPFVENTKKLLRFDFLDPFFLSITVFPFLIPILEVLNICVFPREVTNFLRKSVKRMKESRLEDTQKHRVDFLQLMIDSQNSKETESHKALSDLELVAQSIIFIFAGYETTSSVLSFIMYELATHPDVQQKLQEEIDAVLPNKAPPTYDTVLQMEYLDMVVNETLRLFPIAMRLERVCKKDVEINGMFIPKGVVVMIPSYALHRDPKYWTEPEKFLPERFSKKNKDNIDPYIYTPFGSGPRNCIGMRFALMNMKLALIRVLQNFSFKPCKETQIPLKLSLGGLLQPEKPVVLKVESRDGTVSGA
5-hydroxytryptamine receptor 4 (Homo sapiens), sequence (Q13639 whole entry): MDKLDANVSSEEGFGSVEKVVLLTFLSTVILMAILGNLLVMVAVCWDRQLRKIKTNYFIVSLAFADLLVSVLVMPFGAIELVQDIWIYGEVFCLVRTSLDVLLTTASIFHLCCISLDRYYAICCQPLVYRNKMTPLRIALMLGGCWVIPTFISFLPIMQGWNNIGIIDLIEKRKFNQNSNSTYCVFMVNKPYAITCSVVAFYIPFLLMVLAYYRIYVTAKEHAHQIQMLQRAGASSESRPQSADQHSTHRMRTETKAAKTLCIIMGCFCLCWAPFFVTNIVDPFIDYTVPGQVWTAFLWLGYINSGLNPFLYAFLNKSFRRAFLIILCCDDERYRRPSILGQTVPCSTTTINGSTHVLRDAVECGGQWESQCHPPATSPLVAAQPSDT

On to `CC(C)Cn1nc2c3c(cccc31)C(=O)N([C@@H]1CN3CCC1CC3)C2`, for which the Ki in data set [1] is 2.4 nM.

`Cc1[nH]cnc1CN1CCc2c(c3ccccc3n2C)C1=O` [ALOSETRON] had an ED50 in data set [2] of 0.02 mg/kg.

Turning to `O=C(N[C@H]1CN2CCC1CC2)c1c[nH]c2ccsc2c1=O` [PUMOSETRAG], in [3], the half-inhibitory concentration (IC50) was determined as 9300 nM. In [4], the microsomal CLint was 24 µL/min/mg. The same compound had an ED50 in data set [2] of 0.96 mg/kg. In addition, the EC50 in data set [5] was found to be 5.4 nM; in [6], 9.2 nM.

With `Cn1nc2c3c(cccc31)C(=O)N([C@H]1CN3CCC1CC3)C2`, the 50% inhibitory concentration (IC50) is > 50000 nM in data set [7] and < 10000 nM in data set [3]. In data set [4], this compound returned an intrinsic metabolic clearance (microsomal CLint) of 3.8 µL/min/mg. Also, the solubility in data set [8] is > 500 µM. Also, it took a dose of 0.25 mg/kg to reach the 50% effect level in data set [2] (ED50). In data set [1], the Ki was determined as 1.7 nM. For the same compound, the EC50 came to 12.6 nM in data set [5] and 6.9 nM in [6].

Regarding `CCn1nc2c3c(cccc31)C(=O)N([C@@H]1CN3CCC1CC3)C2`, the Ki in [1] was 1.6 nM.

In the case of `Cn1cc2c3c(cccc31)C(=O)N([C@H]1CN3CCC1CC3)C2`, in [1], the inhibition constant Ki turned out to be 0.9 nM.

On to `Cn1cc2c3c(cccc31)C(=O)N([C@@H]1CN3CCC1CC3)C2`, for which the affinity in [1] corresponds to a Ki of 0.7 nM.

Regarding `CCn1nc2c3c(cccc31)C(=O)N([C@H]1CN3CCC1CC3)C2`, the affinity in data set [1] corresponds to a Ki of 2 nM.

In turn, `Cn1nc2c3c(cccc31)C(=O)N([C@@H]1CN3CCC1CC3)C2` showed a Ki in [1] of 0.7 nM.

The compound `O=C1c2cccc3c2c(nn3Cc2ccccc2)CN1[C@H]1CN2CCC1CC2` returned an inhibition constant (Ki) in [1] of 7.1 nM.

`O=C1c2cccc3[nH]nc(c23)CN1[C@@H]1CN2CCC1CC2`: the inhibition in data set [9] and in [10] was > 50% each time.

`Cn1nc2c3c(cc(F)cc31)C(=O)N([C@H]1CN3CCC1CC3)C2`: the inhibition constant Ki in data set [1] is 2 nM.

`O=C1c2cccc3[nH]nc(c23)CN1[C@H]1CN2CCC1CC2`: the IC50 in data set [7] was > 50000 nM; in [3], < 10000 nM. The compound further gave an intrinsic metabolic clearance (microsomal CLint) in [4] of 7.3 µL/min/mg. Further, the inhibition in data set [9] and in data set [10] was > 50% throughout. The same compound had a median effective dose (ED50) in data set [2] of 0.64 mg/kg.

The Ki is a measure of affinity in units of concentration, obtained from inhibition or displacement. The low end stands for higher affinity, the high end for lower affinity. Usually ED50 stands for the midpoint of the dose-response relation. As a reminder, the IC50 is the concentration at which inhibition is half-maximal. A word on the microsomal CLint: it is a measure of how fast metabolising enzymes remove a compound, apart from limits set by blood flow. For orientation: EC50 means the midpoint of the concentration-response curve. What is called solubility is the dissolved amount per volume that the medium holds. The inhibition is the drop in the measured response relative to a control, in per cent. High values mean strong suppression, low ones little suppression.
